IC50 data for 20 compounds are collected here from patent publication US20240199584A1, “KRAS INHIBITORS” (Bristol-Myers Squibb Company, priority 2022, published 2024).

Test [1] has as its target T1, KRAS G12D (Homo sapiens, UniProt P01116, G12D). Kind of test: biochemical.
Experimental: Recombinant GST-RAF1 RBD (Ras binding domain) (9 nM) was added, followed by the addition of SA-Tb (0.25 nM), and the reaction mixture was incubated for 3 hours. HTRF (Homogeneous Time-Resolved Fluorescence) signal was measured (PerkinElmer Envision), the signal ratio (λem 520/λem 495) was calculated, and IC50 values were calculated from the dose-response curve.
The target in test [2] is T1, KRAS G12D. Kind of test: biochemical. This is another data set of the same source.
Experimental: BIODIPY-labeled GDP (BIODIPY: dipyrrometheneboron difluoride) (400 nM) and recombinant SOS (son of sevenless protein) (10 nM) were added, and the reaction was incubated for 30 minutes. HTRF signal was measured (PerkinElmer Envision), the signal ratio (λem 520/λem 495) was calculated, and IC50 values were calculated from the dose-response curve.
Another test has as its target T2, KRAS G12C (Homo sapiens, UniProt P01116, G12C).
T2 construct: expressed in transfected cells
Kind of test: Cellular KRAS:RAF Disruption Assay (NanoBRET), KRAS G12C. The test is classed as cell-based. To be noted: HEK293 T cells co-expressing RAF1 and KRAS G12C, 24 hours; read-out: RAS::RAF binding via NanoBRET IC50, KRAS G12C. The protocol:
(§1) Cellular KRAS:RAF Disruption Assay
(§2) Stable cell lines (HEK293 T) were generated to co-express RAF1 and mutant or wild type KRAS, as indicated, using the BiBRET vector (Promega). Engineered cell lines were suspended in media (OptiMEM, […]), plated in 384-well plates (8000 cells/well), and allowed to rest for 1.5 hours. Cells were treated with compounds for 24 hours, and NanoBRET NanoGlo substrate (Promega) was added per the manufacturer's instructions.

A further test has as its target T3, KRAS G12A (Homo sapiens, UniProt P01116, G12A).
T3 construct: expressed in transfected cells
The experiment in a line: Cellular KRAS:RAF Disruption Assay (NanoBRET), KRAS G12A. The test is classed as cell-based. The note with it: HEK293 T cells co-expressing RAF1 and KRAS G12A, 24 hours; read-out: RAS::RAF binding via NanoBRET IC50, KRAS G12A. The protocol:
as §1, §2

A further test has as its target T4, KRAS WT (Homo sapiens, UniProt P01116).
T4 construct: expressed in transfected cells
The experiment in a line: Cellular KRAS:RAF Disruption Assay (NanoBRET), KRAS WT. It is filed as cell-based. To be noted: HEK293 T cells co-expressing RAF1 and wild type KRAS, 24 hours; read-out: RAS::RAF binding via NanoBRET IC50, KRAS WT. The protocol:
as §1, §2
For orientation: In BRET a luciferase serves as donor, and the signal depends on an acceptor being close.

The target in a further test is T5, KRAS G12V (Homo sapiens, UniProt P01116, G12V).
T5 construct: expressed in transfected cells
Kind of test: Cellular KRAS:RAF Disruption Assay (NanoBRET), KRAS G12V. It is filed as cell-based. The note with it: HEK293 T cells co-expressing RAF1 and KRAS G12V, 24 hours; read-out: RAS::RAF binding via NanoBRET IC50, KRAS G12V. As to the method: as §1, §2

Where two headings read alike, the source gives them in different places.

T1 sequence (P01116 1-188 isoform P01116-2 G12D): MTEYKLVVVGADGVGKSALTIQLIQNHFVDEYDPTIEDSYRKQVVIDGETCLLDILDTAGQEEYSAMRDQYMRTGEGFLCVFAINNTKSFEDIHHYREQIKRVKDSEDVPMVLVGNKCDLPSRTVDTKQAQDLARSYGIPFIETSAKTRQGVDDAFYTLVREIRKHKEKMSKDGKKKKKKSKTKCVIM
T2 sequence (P01116 1-188 isoform P01116-2 G12C): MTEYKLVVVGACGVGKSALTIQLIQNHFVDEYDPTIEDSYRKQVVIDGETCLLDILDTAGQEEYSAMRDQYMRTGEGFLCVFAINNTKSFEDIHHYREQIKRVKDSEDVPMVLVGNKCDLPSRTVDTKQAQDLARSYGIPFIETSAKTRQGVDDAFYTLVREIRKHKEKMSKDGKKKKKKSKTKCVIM
T3 sequence (P01116 1-188 isoform P01116-2 G12A): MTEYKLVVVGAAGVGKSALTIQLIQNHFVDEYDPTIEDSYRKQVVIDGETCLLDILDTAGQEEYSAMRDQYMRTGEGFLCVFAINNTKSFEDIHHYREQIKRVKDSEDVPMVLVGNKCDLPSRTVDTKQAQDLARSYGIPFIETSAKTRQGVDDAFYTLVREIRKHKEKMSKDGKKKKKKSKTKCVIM
T5 sequence (P01116 1-188 isoform P01116-2 G12V): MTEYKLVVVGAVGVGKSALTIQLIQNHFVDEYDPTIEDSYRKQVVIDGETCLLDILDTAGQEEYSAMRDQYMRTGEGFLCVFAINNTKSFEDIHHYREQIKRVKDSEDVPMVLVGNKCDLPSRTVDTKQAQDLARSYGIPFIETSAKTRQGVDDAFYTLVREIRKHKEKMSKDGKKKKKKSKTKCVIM
T4 sequence (P01116 1-188 isoform P01116-2): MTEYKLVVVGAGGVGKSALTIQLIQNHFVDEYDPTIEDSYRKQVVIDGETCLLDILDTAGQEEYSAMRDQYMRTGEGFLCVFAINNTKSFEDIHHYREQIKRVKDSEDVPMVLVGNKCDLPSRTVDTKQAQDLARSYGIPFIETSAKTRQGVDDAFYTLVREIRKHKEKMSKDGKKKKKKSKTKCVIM

For orientation: IC50 means the concentration that inhibits the measured activity by half. As for `C#Cc1c(F)ccc2cc(O)cc(-c3ncc4c(N5CCCC(C#N)C5)nc(OC[C@@]56CCCN5C[C@H](F)C6)nc4c3F)c12` (single isomer, unassigned) [Example 1-23], inhibition on KRAS G12D [1] was half-maximal at 2 nM (IC50).

Turning to `C#Cc1c(F)ccc2cc(O)cc(-c3ncc4c(N5CCCC(C#N)C5)nc(OCC5(CN6CCC(F)CC6)CC5)nc4c3F)c12` (single isomer, unassigned) [Example 1-44, 1-[7-(8-ethynyl-7-fluoro-3-hydroxynaphthalen-1-yl)-8-fluoro-2-({1-[(4-fluoropiperidin-1-yl)methyl]cyclopropyl}methoxy)pyrido [4,3-d]pyrimidin-4-yl]piperidine-3-carbonitrile], the IC50 was > 100000 nM on KRAS G12D [1] and 19100 nM at KRAS G12D [2].

For the compound `C#Cc1c(F)ccc2cc(O)cc(-c3ncc4c(N5CCCC(CO)C5)nc(OC[C@@]56CCCN5C[C@H](F)C6)nc4c3F)c12` (single isomer, unassigned) [Example 1-63], the IC50 is ≥ 100000 nM at KRAS G12D [1] and 12800 nM against KRAS G12D [2].

For the compound `C#Cc1c(F)ccc2cc(O)cc(-c3ncc4c(N5CCCC(C)(O)C5)nc(OC[C@]56CCC[C@H]5N(C)CCC6)nc4c3F)c12` (single isomer, unassigned) [Example 1-89], the IC50 on KRAS G12C came out at 9.3 nM; at KRAS G12A, 4.8 nM; at KRAS WT, 8.5 nM; on KRAS G12V it was 20.1 nM.

Take `C#Cc1c(F)ccc2cc(O)cc(-c3ncc4c(N5CCOCC(CC#N)C5)nc(OC[C@]56CCC[C@H]5N(C)CCC6)nc4c3F)c12` (single isomer, unassigned) [Example 1-130]: the IC50 on KRAS G12D [1] and against KRAS G12D [2] was 2 nM each time.

For `C#Cc1c(F)ccc2cc(O)cc(-c3ncc4c(N5CCOCCC5C)nc(OC[C@]56CCC[C@H]5N(C)CCC6)nc4c3F)c12` (single isomer, unassigned) [Example 1-142], at KRAS G12D [1], half-maximal inhibition (IC50) was put at 560 nM.

In the case of `C#Cc1c(F)ccc2cc(O)cc(-c3ccc4c(N5CCCC(C#N)C5)nc(OC[C@@]56CCCN5C[C@H](F)C6)nc4c3F)c12` (single isomer, unassigned) [Example 2-41], on KRAS G12D [1], inhibition was half-maximal at 680 nM (IC50).

In the case of `C#Cc1c(F)ccc2cc(O)cc(-c3ncc4c(N5C[C@@H](C)O[C@@H](C)C5)nc(OC[C@]56CCC[C@H]5N(C)CCC6)nc4c3F)c12` [Example 1-12, 4-(2-{[(4aS,7aR)-1-methyl-octahydro-1H-cyclopenta[b]pyridin-4a-yl]methoxy}-4-[(2R,6S)-2,6-dimethylmorpholin-4-yl]-8-fluoropyrido[4,3-d]pyrimidin-7-yl)-5-ethynyl-6-fluoronaphthalen-2-ol], the IC50 against KRAS G12D [1] is 1000 nM; at KRAS G12D [2], < 2 nM.

`C#Cc1c(F)ccc2cc(O)cc(-c3ncc4c(N5C[C@H]6C[C@@H]5CO6)nc(OC[C@@]56CCCN5C[C@H](F)C6)nc4c3F)c12` [Example 1-37, 4-(2-{[(2R,7aS)-2-fluoro-hexahydro-1H-pyrrolizin-7a-yl]methoxy}-8-fluoro-4-[(1R,4R)-2-oxa-5-azabicyclo[2.2.1]heptan-5-yl]pyrido[4,3-d]pyrimidin-7-yl)-5-ethynyl-6-fluoronaphthalen-2-ol]: the IC50 on KRAS G12C came out at 16.6 nM; on KRAS G12A it was 10.5 nM; on KRAS G12V, 54.5 nM.

`C#Cc1c(F)ccc2cc(O)cc(-c3ncc4c(N5CCOCCC5C)nc(OC[C@]56CCC[C@H]5N(C)CCC6)nc4c3F)c12` (stereo partly drawn) [Example 1-93, 4-(2-{[(4aS,7aR)-1-methyl-octahydro-1H-cyclopenta [b]pyridin-4a-yl]methoxy}-8-fluoro-4-(5-methyl-1,4-oxazepan-4-yl)pyrido[4,3-d]pyrimidin-7-yl)-5-ethynyl-6-fluoronaphthalen-2-ol] came in with a half-inhibitory concentration (IC50) at KRAS G12D [1] of 190 nM.

Consider `C#Cc1c(F)ccc2cc(O)cc(-c3ncc4c(N5CCCOCC5)nc(OC[C@@]56C[C@@H](F)CN5CC5(CC5)C6)nc4c3F)c12` [Example 1-106, 4-(2-{[(6′R,7′aR)-6′-fluoro-hexahydrospiro [cyclopropane-1,2′-pyrrolizine]-7′a-yl]methoxy}-8-fluoro-4-(1,4-oxazepan-4-yl)pyrido[4,3-d]pyrimidin-7-yl)-5-ethynyl-6-fluoronaphthalen-2-ol], for which the half-inhibitory concentration (IC50) on KRAS G12D [1] and against KRAS G12D [2] was 10 nM in each case.

For the compound `C#Cc1c(F)ccc2cc(O)cc(-c3ccc4c(N5CC6C(C5)C6(C)C)nc(OC[C@@]56CCCN5C[C@H](F)C6)nc4c3F)c12` (stereo partly drawn) [Example 2-11, 4-(2-{[(2R,7aS)-2-fluoro-hexahydro-1H-pyrrolizin-7a-yl]methoxy}-4-{6,6-dimethyl-3-azabicyclo[3.1.0]hexan-3-yl}-8-fluoroquinazolin-7-yl)-5-ethynyl-6-fluoronaphthalen-2-ol], the IC50 on KRAS G12D [1] came out at 2620 nM; at KRAS G12D [2], 2610 nM.

Regarding `C#Cc1c(F)ccc2cc(O)cc(-c3ccc4c(N5CCC(S(=O)(=O)N(C)C)CC5)nc(OC[C@@]56CCCN5C[C@H](F)C6)nc4c3F)c12` [Example 2-19, 1-(2-{[(2R,7aS)-2-fluoro-hexahydro-1H-pyrrolizin-7a-yl]methoxy}-7-(8-ethynyl-7-fluoro-3-hydroxynaphthalen-1-yl)-8-fluoroquinazolin-4-yl)-N,N-dimethylpiperidine-4-sulfonamide], the results for the IC50 at KRAS G12D [1] and on KRAS G12D [2] were > 100000 nM and 2390 nM, respectively.

For `C#Cc1c(F)ccc2cc(O)cc(-c3ccc4c(N5CC6CCC(C5)N6C(=O)C5CC(F)(F)C5)nc(OC[C@@]56CCCN5C[C@H](F)C6)nc4c3F)c12` [Example 7-4, 4-(2-{[(2R,7aS)-2-fluoro-hexahydro-1H-pyrrolizin-7a-yl]methoxy}-4-[8-(3,3-difluorocyclobutanecarbonyl)-3,8-diazabicyclo[3.2.1]octan-3-yl]-8-fluoroquinazolin-7-yl)-5-ethynyl-6-fluoronaphthalen-2-ol], the IC50 against KRAS G12D [1] is 6600 nM; on KRAS G12D [2], < 2 nM.

On KRAS G12D [2], `C#Cc1c(F)ccc2cc(O)cc(-c3nc(OC)c4c(N5CCC[C@](O)(CF)C5)nc(OC[C@]56CCC[C@H]5N(C)CCC6)nc4c3F)c12` [Example 9-26, (R)-1-(7-(8-ethynyl-7-fluoro-3-hydroxynaphthalen-1-yl)-8-fluoro-5-methoxy-2-(((4aS,7aR)-1-methyloctahydro-4aH-cyclopenta[b]pyridin-4a-yl)methoxy)pyrido[4,3-d]pyrimidin-4-yl)-3-(fluoromethyl)piperidin-3-ol] had an IC50 of 6 nM.

`C#Cc1c(F)ccc2cc(O)cc(-c3nc(OC)c4c(N5CCOC6CC65)nc(OC[C@@]56CCCN5C[C@H](F)C6)nc4c3F)c12` (stereo partly drawn) [Example 9-40, 4-(4-(2-oxa-5-azabicyclo[4.1.0]heptan-5-yl)-8-fluoro-2-(((2R,7aS)-2-fluorotetrahydro-1H-pyrrolizin-7a(5H)-yl)methoxy)-5-methoxypyrido[4,3-d]pyrimidin-7-yl)-5-ethynyl-6-fluoronaphthalen-2-ol] showed an IC50 against KRAS G12D [2] of 6 nM.

On to `CN1CCC[C@@]2(COc3nc(N4CCC[C@@](C)(O)C4)c4cnc(-c5cc(O)ccc5C5CCC5)c(F)c4n3)CCC[C@@H]12` [Example 10-3, (3R)-1-(2-{[(4aS,7aR)-1-methyl-octahydro-1H-cyclopenta[b]pyridin-4a-yl]methoxy}-7-(2-cyclobutyl-5-hydroxyphenyl)-8-fluoropyrido[4,3-d]pyrimidin-4-yl)-3-methylpiperidin-3-ol], for which the figures for the IC50 against KRAS G12D [1] and against KRAS G12D [2] were 1060 nM and < 2 nM, respectively.

In the case of `CN1CCC[C@@]2(COc3nc(N4CCC[C@@](C)(O)C4)c4cnc(-c5cn(C(F)F)c(=O)c6ccccc56)c(F)c4n3)CCC[C@@H]12` [Example 10-6, 4-(2-{[(4aS,7aR)-1-methyl-octahydro-1H-cyclopenta[b]pyridin-4a-yl]methoxy}-8-fluro-4-[(3R)-3-hydroxy-3-methylpiperidin-1-yl]pyrido[4,3-d]pyrimidin-7-yl)-2-(difluoromethyl)-1,2-dihydroisoquinolin-1-one], the IC50 against KRAS G12D [1] and at KRAS G12D [2] was > 100000 nM each time.

With `CN1CCC[C@@]2(COc3nc(N4CCC[C@@](C)(O)C4)c4cnc(-c5cnc(OC(F)F)c6ccccc56)c(F)c4n3)CCC[C@@H]12` [Example 10-7, (3R)-1-(2-{[(4aS,7aR)-1-methyl-octahydro-1H-cyclopenta[b]pyridin-4a-yl]methoxy}-7-[1-(difluoromethoxy)isoquinolin-4-yl]-8-fluoropyrido[4,3-d]pyrimidin-4-yl)-3-methylpiperidin-3-ol], the IC50 on KRAS G12D [1] and against KRAS G12D [2] was > 100000 nM in each case.

On to `CN1CCC[C@@]2(COc3nc(N4CCC[C@@](C)(O)C4)c4cnc(-c5cn(C(F)F)c(=O)c6ccc(C(F)(F)F)cc56)c(F)c4n3)CCC[C@@H]12` [Example 10-8, 4-(2-{[(4aS,7aR)-1-methyl-octahydro-1H-cyclopenta[b]pyridin-4a-yl]methoxy}-8-fluoro-4-[(3R)-3-hydroxy-3-methylpiperidin-1-yl]pyrido[4,3-d]pyrimidin-7-yl)-2-(difluoromethyl)-6-(trifluoromethyl)-1,2-dihydroisoquinolin-1-one], for which the IC50 at KRAS G12D [1] and at KRAS G12D [2] was > 100000 nM each time.
